Results on 4 compounds are retold here after ChEMBL document CHEMBL1158580, “Novel 1,3,5-triphenyl-2-pyrazolines as anti-infective agents” (2010).

In brackets after ≈: the same amount, converted by molar mass.

The first assay has as its system Proteus vulgaris. Briefly: Antibacterial activity against Proteus vulgaris NCIM 2813 by microdilution method. In kind it is functional.
By MIC is commonly meant the smallest concentration in the dilution series that meets the test's criterion for growth inhibition. `CSc1ccc(C2CC(c3cccc4c3OCO4)=NN2c2ccccc2)cc1` (stereo not drawn) displayed an MIC of 0.322 mM (≈ 125 µg/mL).
Still for that read-out and setting: with `CCOc1ccc(C2=NN(c3ccccc3)C(c3ccc(SC)cc3)C2)cc1` (stereo not drawn) the figure was 0.322 mM (≈ 125 µg/mL); with `CSc1ccc(C2CC(c3ccccc3)=NN2c2ccccc2)cc1` (stereo not drawn), 0.726 mM (≈ 250 µg/mL); with `CS(=O)(=O)c1ccc(C2CC(c3ccc(Cl)cc3)=NN2c2ccccc2)cc1` (stereo not drawn), 0.304 mM (≈ 125 µg/mL).

For another assay, the system named is Fusarium proliferatum. As to the kind of experiment: Antifungal activity against Fusarium proliferatum NCIM 1105 assessed as fungal growth inhibition at 2 mg/ml by microdilution method. In kind it is functional. (In broth dilution the organism is exposed to a series of concentrations in liquid medium.)
The inhibition is the relative decrease from the control value, in per cent. As to `CSc1ccc(C2CC(c3cccc4c3OCO4)=NN2c2ccccc2)cc1` (stereo not drawn), the inhibition at 2000 µg/mL is 81.3%.
Regarding `CCOc1ccc(C2=NN(c3ccccc3)C(c3ccc(SC)cc3)C2)cc1` (stereo not drawn), the inhibition at 2000 µg/mL came out at 94.3%.
Still for that read-out and setting: for `CSc1ccc(C2CC(c3ccccc3)=NN2c2ccccc2)cc1` (stereo not drawn) the value was 94.1%; for `CS(=O)(=O)c1ccc(C2CC(c3ccc(Cl)cc3)=NN2c2ccccc2)cc1` (stereo not drawn), 88.3%.

For the next assay, the system named is Mycobacterium tuberculosis. Briefly: Antimycobacterial activity against Mycobacterium tuberculosis H37Rv assessed as reduction in relative light units at 100 ug/ml after 72 hrs by luciferase reporter phage assay. The assay is classed as functional. Also on record: scale not given: the % may be the effect or the level left. For orientation: Reporter assays use an easily measured gene product as a stand-in for the process of interest.
Regarding `CSc1ccc(C2CC(c3cccc4c3OCO4)=NN2c2ccccc2)cc1` (stereo not drawn), the Activity is listed as 27.81%.
Still for that read-out and setting: for `CCOc1ccc(C2=NN(c3ccccc3)C(c3ccc(SC)cc3)C2)cc1` (stereo not drawn) the value was 48.35%.
As for `CSc1ccc(C2CC(c3ccccc3)=NN2c2ccccc2)cc1` (stereo not drawn), the Activity turned out to be 17.65%.
Still for that read-out and setting: for `CS(=O)(=O)c1ccc(C2CC(c3ccc(Cl)cc3)=NN2c2ccccc2)cc1` (stereo not drawn) the value was 15.46%.

The next assay relates to Escherichia coli. Briefly: Antibacterial activity against Escherichia coli NCIM 2931 by microdilution method. The assay is classed as functional.
`CSc1ccc(C2CC(c3cccc4c3OCO4)=NN2c2ccccc2)cc1` (stereo not drawn) registered an MIC of 0.08 mM (≈ 31.1 µg/mL).
In turn, `CCOc1ccc(C2=NN(c3ccccc3)C(c3ccc(SC)cc3)C2)cc1` (stereo not drawn) displayed an MIC of 0.161 mM (≈ 62.6 µg/mL).
In the case of `CSc1ccc(C2CC(c3ccccc3)=NN2c2ccccc2)cc1` (stereo not drawn), the lowest concentration to inhibit growth (MIC) was 0.045 mM (≈ 15.5 µg/mL).
Still for that read-out and setting: with `CS(=O)(=O)c1ccc(C2CC(c3ccc(Cl)cc3)=NN2c2ccccc2)cc1` (stereo not drawn) the figure was 0.152 mM (≈ 62.5 µg/mL).

The test system of the next assay is Salmonella enterica. As to the kind of experiment: Antibacterial activity against Salmonella typhi NCIM 2501 by microdilution method. In kind it is functional, Salmonella enterica subsp. enterica serovar Typhi.
The compound `CSc1ccc(C2CC(c3cccc4c3OCO4)=NN2c2ccccc2)cc1` (stereo not drawn) returned a minimum inhibitory concentration (MIC) of 0.322 µM (≈ 0.125 µg/mL).
With `CCOc1ccc(C2=NN(c3ccccc3)C(c3ccc(SC)cc3)C2)cc1` (stereo not drawn), the lowest concentration to inhibit growth (MIC) was 0.322 µM (≈ 0.125 µg/mL).
On to `CSc1ccc(C2CC(c3ccccc3)=NN2c2ccccc2)cc1` (stereo not drawn), for which the minimal inhibitory concentration (MIC) came to 0.726 µM (≈ 0.25 µg/mL).
Same read-out and setting: for `CS(=O)(=O)c1ccc(C2CC(c3ccc(Cl)cc3)=NN2c2ccccc2)cc1` (stereo not drawn) the value was 0.304 µM (≈ 0.125 µg/mL).

In another assay the test system is Aspergillus niger. As to the kind of experiment: Antifungal activity against Aspergillus niger NCIM 596 assessed as fungal growth inhibition at 2 mg/ml by microdilution method. The assay is classed as functional.
Turning to `CSc1ccc(C2CC(c3cccc4c3OCO4)=NN2c2ccccc2)cc1` (stereo not drawn), the inhibition at 2000 µg/mL came to 71.4%.
Still for that read-out and setting: for `CCOc1ccc(C2=NN(c3ccccc3)C(c3ccc(SC)cc3)C2)cc1` (stereo not drawn) the value was 85.3%; for `CSc1ccc(C2CC(c3ccccc3)=NN2c2ccccc2)cc1` (stereo not drawn), 93.5%.
On the same count and under the same terms, with `CS(=O)(=O)c1ccc(C2CC(c3ccc(Cl)cc3)=NN2c2ccccc2)cc1` (stereo not drawn) the figure was 97.5%.

In a further assay the test system is Bacillus subtilis. Briefly: Antibacterial activity against Bacillus subtilis NCIM 2718 by microdilution method. The assay is classed as functional.
Regarding `CSc1ccc(C2CC(c3cccc4c3OCO4)=NN2c2ccccc2)cc1` (stereo not drawn), 0.322 mM (≈ 125 µg/mL) was the least that counted as inhibitory (MIC).
Still for that read-out and setting: for `CCOc1ccc(C2=NN(c3ccccc3)C(c3ccc(SC)cc3)C2)cc1` (stereo not drawn) the value was 0.322 mM (≈ 125 µg/mL); for `CSc1ccc(C2CC(c3ccccc3)=NN2c2ccccc2)cc1` (stereo not drawn), 0.363 mM (≈ 125 µg/mL).
Same read-out and setting: with `CS(=O)(=O)c1ccc(C2CC(c3ccc(Cl)cc3)=NN2c2ccccc2)cc1` (stereo not drawn) the figure was 0.304 mM (≈ 125 µg/mL).

Another assay has as its system Staphylococcus aureus. Briefly: Antibacterial activity against Staphylococcus aureus NCIM 5021 by microdilution method. The assay is classed as functional.
`CSc1ccc(C2CC(c3cccc4c3OCO4)=NN2c2ccccc2)cc1` (stereo not drawn) yielded an MIC of 0.644 mM (≈ 250 µg/mL).
The same measure, in the same setting: for `CCOc1ccc(C2=NN(c3ccccc3)C(c3ccc(SC)cc3)C2)cc1` (stereo not drawn) the value was 0.643 mM (≈ 250 µg/mL); for `CSc1ccc(C2CC(c3ccccc3)=NN2c2ccccc2)cc1` (stereo not drawn), 0.726 mM (≈ 250 µg/mL).
`CS(=O)(=O)c1ccc(C2CC(c3ccc(Cl)cc3)=NN2c2ccccc2)cc1` (stereo not drawn) yielded a minimum inhibitory concentration (MIC) of 0.608 mM (≈ 250 µg/mL).

Another assay has as its system Klebsiella aerogenes. As to the kind of experiment: Antibacterial activity against Enterobacter aerogenes NCIM 5139 by microdilution method. The assay is classed as functional.
The compound `CSc1ccc(C2CC(c3cccc4c3OCO4)=NN2c2ccccc2)cc1` (stereo not drawn) returned a minimum inhibitory concentration (MIC) of 0.322 mM (≈ 125 µg/mL).
In turn, `CCOc1ccc(C2=NN(c3ccccc3)C(c3ccc(SC)cc3)C2)cc1` (stereo not drawn) returned an MIC of 0.322 mM (≈ 125 µg/mL).
`CSc1ccc(C2CC(c3ccccc3)=NN2c2ccccc2)cc1` (stereo not drawn): the minimal inhibitory concentration (MIC) worked out at 0.363 mM (≈ 125 µg/mL).
Still for that read-out and setting: for `CS(=O)(=O)c1ccc(C2CC(c3ccc(Cl)cc3)=NN2c2ccccc2)cc1` (stereo not drawn) the value was 0.304 mM (≈ 125 µg/mL).

Another assay concerns Candida tropicalis. Briefly: Antifungal activity against Candida tropicalis NCIM 3556 assessed as fungal growth inhibition at 2 mg/ml by microdilution method. In kind it is functional.
Turning to `CSc1ccc(C2CC(c3cccc4c3OCO4)=NN2c2ccccc2)cc1` (stereo not drawn), the inhibition at 2000 µg/mL is 17.1%.
Consider `CCOc1ccc(C2=NN(c3ccccc3)C(c3ccc(SC)cc3)C2)cc1` (stereo not drawn), for which the inhibition at 2000 µg/mL worked out at 95.4%.
Regarding `CSc1ccc(C2CC(c3ccccc3)=NN2c2ccccc2)cc1` (stereo not drawn), the inhibition at 2000 µg/mL worked out at 73.1%.
Same read-out and setting: with `CS(=O)(=O)c1ccc(C2CC(c3ccc(Cl)cc3)=NN2c2ccccc2)cc1` (stereo not drawn) the figure was 95.6%.

Another assay has as its system Mycobacterium tuberculosis. As to the kind of experiment: Antimycobacterial activity against Mycobacterium tuberculosis H37Rv assessed as reduction in relative light units at 50 ug/ml after 72 hrs by luciferase reporter phage assay. The assay is classed as functional. Also on record: scale not given: the % may be the effect or the level left.
For `CSc1ccc(C2CC(c3cccc4c3OCO4)=NN2c2ccccc2)cc1` (stereo not drawn), the Activity amounted to 10.59%.
Same read-out and setting: with `CCOc1ccc(C2=NN(c3ccccc3)C(c3ccc(SC)cc3)C2)cc1` (stereo not drawn) the figure was 36.44%; with `CSc1ccc(C2CC(c3ccccc3)=NN2c2ccccc2)cc1` (stereo not drawn), 0%; with `CS(=O)(=O)c1ccc(C2CC(c3ccc(Cl)cc3)=NN2c2ccccc2)cc1` (stereo not drawn), 0.76%.

Another assay relates to Aspergillus flavus. Briefly: Antifungal activity against Aspergillus flavus NCIM 594 assessed as fungal growth inhibition at 2 mg/ml by microdilution method. The assay is classed as functional.
Take `CSc1ccc(C2CC(c3cccc4c3OCO4)=NN2c2ccccc2)cc1` (stereo not drawn): the inhibition at 2000 µg/mL was 31.2%.
On the same count and under the same terms, for `CCOc1ccc(C2=NN(c3ccccc3)C(c3ccc(SC)cc3)C2)cc1` (stereo not drawn) the value was 38.2%; for `CSc1ccc(C2CC(c3ccccc3)=NN2c2ccccc2)cc1` (stereo not drawn), 30.5%; for `CS(=O)(=O)c1ccc(C2CC(c3ccc(Cl)cc3)=NN2c2ccccc2)cc1` (stereo not drawn), 88.4%.
